Measurements from PubChem BioAssay (NCI).
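Where inhibition never reached the appropriate level, the endpoint shown equals the highest concentration tested. Otherwise, values were interpolated linearly from a five-concentration, 48-hour dose response in 96-well plates. At the GI50, growth is halved. The concentration for full growth arrest is given as TGI.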

Columns and labels:
Assay in all cases: NCI tumour cell line growth inhibition, 48 h
[1] = system: K-562 leukemia
[2] = system: A498 renal
[3] = system: OVCAR-3 ovarian
[4] = system: EKVX NSCLC
[5] = system: NCI-H522 lung
[6] = system: RXF 393 renal
[7] = system: UO-31 renal
[8] = system: ACHN renal
[9] = system: SNB-19 CNS
[10] = system: BT-549 breast

SMILES | TGI [1] | TGI [2] | TGI [3] | TGI [4] | TGI [5] | TGI [6] | TGI [7] | TGI [8] | TGI [9] | GI50 [1] | GI50 [2] | GI50 [3] | GI50 [4] | GI50 [5] | GI50 [6] | GI50 [7] | GI50 [8] | GI50 [9] | GI50 [10] | TGI [10]
Cc1ccccc1C(=O)c1cc(O)ccc1O | > 100 µM | > 100 µM | > 100 µM | > 100 µM | 99.1 µM | > 100 µM | > 100 µM | > 100 µM | > 100 µM | – | – | – | – | – | – | – | – | – | – | –
CC(C)(C)c1cc(C(P(=O)(O)O)P(=O)(O)O)cc(C(C)(C)C)c1O | > 100 µM | > 100 µM | > 100 µM | > 100 µM | > 100 µM | – | > 100 µM | > 100 µM | > 100 µM | – | – | – | – | – | – | – | – | – | – | –
CN(C)CCC(/C=C/c1ccccc1)=N\Nc1ccccc1 | 10.5 µM | 28.2 µM | 6.5 µM | 6.47 µM | 8.98 µM | 18.6 µM | 2.8 µM | 2.31 µM | 14.1 µM | – | – | – | – | – | – | – | – | – | – | –
Cc1nc(Nc2ccc(Cl)cc2)sc1C(=O)NNC(=S)NN | 99 µM | 29.1 µM | 39.5 µM | 46.8 µM | 34.8 µM | 27.6 µM | 30.2 µM | 45.7 µM | 34.8 µM | – | – | – | – | – | – | – | – | – | – | –
COc1cc(OC)c2c(=O)cc(-c3ccc(OC)c(OC)c3OC)oc2c1 | > 100 µM | – | > 100 µM | > 100 µM | > 100 µM | > 100 µM | – | > 100 µM | > 100 µM | – | – | – | – | – | – | – | – | – | – | –
CN1CCN(c2ccc(Nc3cc(-c4cccc(-n5ccc6cc(C7CC7)cc(F)c6c5=O)c4CO)cn(C)c3=O)nc2)CC1 | 12 µM | 9.26 µM | 8.8 µM | 9.11 µM | 21 µM | 5.37 µM | 3.46 µM | 3.76 µM | 15.4 µM | 3.17 µM | 2.51 µM | 3.12 µM | 2.62 µM | 4.33 µM | 1.9 µM | 1.72 µM | 1.84 µM | 3.15 µM | – | –
CSc1nc(SC)c2c(C#N)[nH]nc2n1 | > 100 µM | > 100 µM | > 100 µM | > 100 µM | > 100 µM | > 100 µM | > 100 µM | > 100 µM | > 100 µM | – | – | – | – | – | – | – | – | – | – | –
CN(C)CC[C@H](CSc1ccccc1)Nc1ccc(S(=O)(=O)NC(=O)c2ccc(N3CCN(Cc4ccccc4-c4ccc(Cl)cc4)CC3)cc2)cc1[N+](=O)[O-] | > 100 µM | 0.818 µM | 23.6 µM | > 100 µM | – | 4.27 µM | 27.6 µM | > 50.6 µM | > 100 µM | 5.03 µM | 0.0971 µM | 3.92 µM | 3.32 µM | – | 0.918 µM | 3.53 µM | 4.96 µM | 4.68 µM | 17.3 µM | > 100 µM
COC(=O)C(=Cc1cc(OC)c(OC)c(OC)c1-c1cc2c(cc1C1(C)OCCS1)OCO2)C(=O)OC (stereo unspecified) | > 100 µM | – | 54.6 µM | > 100 µM | 55.5 µM | > 100 µM | – | > 100 µM | > 100 µM | – | – | – | – | – | – | – | – | – | – | –
O=C(Nc1cccc(Cl)c1)C(=O)C(C(=O)c1ccc2ccccc2c1)C1OC(=O)c2ccccc21 (stereo unspecified) | 70.2 µM | – | 56.6 µM | > 100 µM | – | – | 29.9 µM | 82.7 µM | 28 µM | – | – | – | – | – | – | – | – | – | – | –
COC(=O)c1ccc2c(c1)C(=O)c1c-2n(CCCN=[N+]=[N-])c(=O)c2cc(OC)c(OC)cc12 | > 100 µM | – | > 100 µM | > 100 µM | > 100 µM | > 100 µM | > 100 µM | > 100 µM | > 100 µM | > 100 µM | – | > 100 µM | > 100 µM | > 100 µM | > 100 µM | > 100 µM | > 100 µM | > 100 µM | > 100 µM | > 100 µM
O=[N+]([O-])c1ccc2occ3c2c1CCC3 | > 100 µM | > 100 µM | > 100 µM | > 100 µM | > 100 µM | > 100 µM | > 100 µM | > 100 µM | > 100 µM | – | – | – | – | – | – | – | – | – | – | –
C#CC1/C(=C\C(=O)OC)CCCC1O (stereo unspecified) | > 100 µM | > 100 µM | > 100 µM | > 100 µM | > 100 µM | > 100 µM | > 100 µM | > 100 µM | > 100 µM | – | – | – | – | – | – | – | – | – | – | –
Cc1cc2c(=O)c3ccccc3[nH]c2c(C(N)=O)c1C | > 100 µM | – | > 100 µM | > 100 µM | > 100 µM | > 100 µM | > 100 µM | > 100 µM | > 100 µM | – | – | – | – | – | – | – | – | – | – | –
CCOC(=O)c1ccc(/C(C)=N/NC(N)=S)cc1 | > 100 µM | > 100 µM | > 100 µM | > 100 µM | – | > 100 µM | – | > 100 µM | > 100 µM | – | – | – | – | – | – | – | – | – | – | –
Nc1ncn([C@@H]2O[C@H](CO)[C@@H](O)[C@H]2O)c(=O)n1 | > 100 µM | 13.8 µM | 3.69 µM | > 100 µM | 5.84 µM | 4.64 µM | 9.97 µM | 16.7 µM | > 100 µM | 0.572 µM | 1.41 µM | 1.56 µM | 8.49 µM | 1.29 µM | 0.346 µM | 1.1 µM | 0.664 µM | 4.1 µM | – | –
COc1c(O)c2c(=O)cc3c4c5c(cc(=O)c6c(O)c(OC)c(CC(C)O)c(c(c1CC(C)O)c24)c65)OCO3 (stereo unspecified) | 43.3 µM | – | 6.63 µM | – | 4.38 µM | 4.03 µM | 5.45 µM | 5.96 µM | 7.53 µM | – | – | – | – | – | – | – | – | – | – | –
CC(C)C1=Cc2ccc3c(c2C(=O)C1=O)CCCC3(C)C | > 100 µM | 34 µM | 6.71 µM | 28.6 µM | 3.39 µM | 3.86 µM | 13.2 µM | 13 µM | 31.3 µM | – | – | – | – | – | – | – | – | – | – | –
COC(=O)C1CCCC2(C1)OCCO2 (stereo unspecified) | > 100 µM | > 100 µM | > 100 µM | > 100 µM | > 100 µM | > 100 µM | > 100 µM | > 100 µM | > 100 µM | – | – | – | – | – | – | – | – | – | – | –
COc1cc(C(=O)N2CCN(C(=O)c3cc(OC)c(OC)c(OC)c3)C2=S)cc(OC)c1OC | > 100 µM | 33 µM | 29.6 µM | – | 16.3 µM | 28.1 µM | 12.8 µM | 34.5 µM | 38.1 µM | 24.9 µM | 17.7 µM | 15.2 µM | – | 3.67 µM | 14.3 µM | – | 17.8 µM | 18.5 µM | 17.4 µM | 34.1 µM
